According to US11452717B2, “Small molecule activators of nicotinamide phosphoribosyltransferase (NAMPT) and uses thereof” (Sanford Burnham Prebys Medical Discovery Institute, priority 2017, dated 2022):

Biological target: NAMPT enzyme (Homo sapiens (Human), UniProt P43490)
Test: Enzyme Assay and NMN Detection (NAMPT reaction, fluorescence detection of NMN)
Assay type: biochemical
Settings: NAMPT activation, NMN formation
Summary of the method: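 NMN formed was read at ex380/em460 after acetophenone/KOH derivatization and formic acid addition, using a same-day calibration curve. Final conditions: NAMPT 16 nM, nicotinamide 5 uM, PRPP 6.25 uM, ATP 120 uM, pyrophosphatase 0.04 U/ml, pH 7.5 HEPES buffer with MgCl2 and TCEP, 2 h at room temperature.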

Sequence of NAMPT enzyme (P43490 whole entry, species assumed): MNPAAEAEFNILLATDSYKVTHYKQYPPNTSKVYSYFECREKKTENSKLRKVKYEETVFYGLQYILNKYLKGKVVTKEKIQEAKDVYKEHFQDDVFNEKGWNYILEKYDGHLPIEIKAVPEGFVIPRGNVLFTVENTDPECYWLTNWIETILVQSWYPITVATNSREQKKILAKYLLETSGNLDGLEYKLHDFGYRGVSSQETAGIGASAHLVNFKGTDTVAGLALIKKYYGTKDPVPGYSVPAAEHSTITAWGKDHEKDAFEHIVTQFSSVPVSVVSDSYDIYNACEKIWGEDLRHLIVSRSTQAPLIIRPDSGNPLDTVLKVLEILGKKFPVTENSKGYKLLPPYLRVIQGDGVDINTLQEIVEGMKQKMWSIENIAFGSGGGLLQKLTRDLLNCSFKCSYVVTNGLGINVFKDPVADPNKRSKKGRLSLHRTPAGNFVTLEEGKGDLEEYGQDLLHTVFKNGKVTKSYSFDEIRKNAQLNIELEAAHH

EC50 (Table B-2)	Structure (SMILES)	other results
100 to 2000 nM	N#Cc1ccc(CNS(=O)(=O)c2ccc(NC(=O)NCc3ccncc3)cc2)cc1 [N-(4-cyanobenzyl)-4-(3-(pyridin-4-ylmethyl)ureido)benzenesulfonamide]	
100 to 2000 nM	N#Cc1ccc(NC(=O)c2ccc(NC(=O)NCc3ccncc3)cc2)cc1 [N-(4-cyanophenyl)-4-(3-(pyridin-4-ylmethyl)ureido)benzamide]	
100 to 2000 nM	CCOc1ccc(NC(=O)c2ccc(NC(=O)NCc3ccncc3)cc2)cc1 [N-(4-ethoxyphenyl)-4-(3-(pyridin-4-ylmethyl)ureido)benzamide]	
> 20000 nM	O=C(NCc1ccncc1)Nc1ccc(C(=O)NCc2ccc(F)cc2)cc1 [N-(4-fluorobenzyl)-4-(3-(pyridin-4-ylmethyl)ureido)benzamide]	
100 to 2000 nM	O=C(NCc1ccncc1)Nc1ccc(S(=O)(=O)NCc2ccc(F)cc2)cc1 [N-(4-fluorobenzyl)-4-(3-(pyridin-4-ylmethyl)ureido)benzenesulfonamide]	
100 to 2000 nM	O=C(NCc1ccncc1)Nc1ccc(C(=O)NCCc2ccc(F)cc2)cc1 [N-(4-fluorophenethyl)-4-(3-(pyridin-4-ylmethyl)ureido)benzamide]	
100 to 2000 nM	O=C(NCc1ccncc1)Nc1ccc(C(=O)Nc2ccc(F)cc2)cc1 [N-(4-fluorophenyl)-4-(3-(pyridin-4-ylmethyl)ureido)benzamide]	
100 to 2000 nM	CC(C)Oc1ccc(NC(=O)c2ccc(NC(=O)NCc3ccncc3)cc2)cc1 [N-(4-isopropoxyphenyl)-4-(3-(pyridin-4-ylmethyl)ureido)benzamide]	
100 to 2000 nM	COc1ccc(NC(=O)c2ccc(NC(=O)NCc3ccncc3)cc2)cc1C [N-(4-methoxy-3-methylphenyl)-4-(3-(pyridin-4-ylmethyl)ureido)benzamide]	
> 20000 nM	COc1ccc(CNC(=O)c2ccc(NC(=O)NCc3ccncc3)cc2)cc1 [N-(4-methoxybenzyl)-4-(3-(pyridin-4-ylmethyl)ureido)benzamide]	
100 to 2000 nM	COc1ccc(CNS(=O)(=O)c2ccc(NC(=O)NCc3ccncc3)cc2)cc1 [N-(4-methoxybenzyl)-4-(3-(pyridin-4-ylmethyl)ureido)benzenesulfonamide]	
100 to 2000 nM	COc1ccc(NC(=O)c2ccc(NC(=O)NCc3ccncc3)cc2)cc1 [N-(4-methoxyphenyl)-4-(3-(pyridin-4-ylmethyl)ureido)benzamide]	
> 20000 nM	Cc1ccc(CNC(=O)c2ccc(NC(=O)NCc3ccncc3)cc2)cc1 [N-(4-methylbenzyl)-4-(3-(pyridin-4-ylmethyl)ureido)benzamide]	
100 to 2000 nM	Cc1ccc(CNS(=O)(=O)c2ccc(NC(=O)NCc3ccncc3)cc2)cc1 [N-(4-methylbenzyl)-4-(3-(pyridin-4-ylmethyl)ureido)benzenesulfonamide]	
100 to 2000 nM	Cc1ccc(CCNC(=O)c2ccc(NC(=O)NCc3ccncc3)cc2)cc1 [N-(4-methylphenethyl)-4-(3-(pyridin-4-ylmethyl)ureido)benzamide]	
	COc1ccc(Cn2cc(CNC(=O)Nc3ccc(NS(=O)(=O)c4ccccc4)cc3)cn2)cc1 [N-(4-{3-[1-(4-Methoxy-benzyl)-1H-pyrazol-4-ylmethyl]-ureido}-phenyl)-benzenesulfonamide]	EC50 (Table B-1): > 20000 nM
> 20000 nM	Cc1cc(NS(=O)(=O)c2ccc(NC(=O)NCc3ccncc3)cc2)no1 [N-(5-Methyl-isoxazol-3-yl)-4-(3-pyridin-4-ylmethyl-ureido)-benzenesulfonamide]	
5000 to 20000 nM	O=C(NCc1ccncc1)Nc1ccc(C(=O)Nc2ccc3c(c2)OCO3)cc1 [N-(benzo[d][1,3]dioxol-5-yl)-4-(3-(pyridin-4-ylmethyl)ureido)benzamide]	
> 20000 nM	O=C(NCc1ccncc1)Nc1cccc(S(=O)(=O)NCC2CCC2)c1 [N-(cyclobutylmethyl)-3-(3-(pyridin-4-ylmethyl)ureido)benzenesulfonamide]	
5000 to 20000 nM	O=C(NCc1ccncc1)Nc1ccc(C(=O)NCC2CCCC2)cc1 [N-(cyclopentylmethyl)-4-(3-(pyridin-4-ylmethyl)ureido)benzamide]	
2000 to 5000 nM	O=C(NCc1ccncc1)Nc1ccc(C(=O)NCC2CC2)cc1 [N-(cyclopropylmethyl)-4-(3-(pyridin-4-ylmethyl)ureido)benzamide]	
5000 to 20000 nM	O=C(NCc1ccncc1)Nc1ccc(C(=O)Nc2ccccn2)cc1 [N-(pyridin-2-yl)-4-(3-(pyridin-4-ylmethyl)ureido)benzamide]	
> 20000 nM	O=C(NCc1ccncc1)Nc1ccc(C(=O)Nc2cccnc2)cc1 [N-(pyridin-3-yl)-4-(3-(pyridin-4-ylmethyl)ureido)benzamide]	
> 20000 nM	O=C(NCc1ccncc1)Nc1ccc(C(=O)NCc2ccncc2)cc1 [N-(pyridin-4-ylmethyl)-4-(3-(pyridin-4-ylmethyl)ureido)benzamide]	
100 to 2000 nM	CC(C)(C)NS(=O)(=O)c1ccc(NC(=O)NCc2ccncc2)cc1 [N-(tert-butyl)-4-(3-(pyridin-4-ylmethyl)ureido)benzenesulfonamide]	

EC50 (Table B-2)	Structure (SMILES)	other results
	O=C(NCc1ccccc1)Nc1ccc(S(=O)(=O)NCc2ccccc2)cc1 [N-Benzyl-4-(3-benzyl-ureido)-benzenesulfonamide]	EC50 (Table B-3): > 20000 nM
	O=C(NCc1cnco1)Nc1ccc(S(=O)(=O)NCc2ccccc2)cc1 [N-Benzyl-4-(3-oxazol-5-ylmethyl-ureido)-benzenesulfonamide]	EC50 (Table B-1): 100 to 2000 nM
< 100 nM	O=C(NCc1ccncc1)Nc1ccc(S(=O)(=O)N(Cc2ccccc2)CC(F)(F)F)cc1 [N-Benzyl-4-(3-pyridin-4-ylmethyl-ureido)-N-(2,2,2-trifluoro-ethyl)-benzenesulfonamide]	
100 to 2000 nM	O=C(NCc1ccncc1)Nc1ccc(S(=O)(=O)NCc2ccccc2)cc1 [N-Benzyl-4-(3-pyridin-4-ylmethyl-ureido)-benzenesulfonamide]	
	O=C(NCc1cn[nH]c1)Nc1ccc(S(=O)(=O)NCc2ccccc2)cc1 [N-Benzyl-4-[3-(1H-pyrazol-4-ylmethyl)-ureido]-benzenesulfonamide]	EC50 (Table B-1): 100 to 2000 nM
< 100 nM	O=C(NCc1ccncc1)Nc1ccc(S(=O)(=O)N(Cc2ccccc2)C2CC2)cc1 [N-Benzyl-N-cyclopropyl-4-(3-pyridin-4-ylmethyl-ureido)-benzenesulfonamide]	
< 100 nM	CCN(Cc1ccccc1)S(=O)(=O)c1ccc(NC(=O)NCc2ccncc2)cc1 [N-Benzyl-N-ethyl-4-(3-pyridin-4-ylmethyl-ureido)-benzenesulfonamide]	
	CC(C)N(Cc1ccccc1)S(=O)(=O)c1ccc(NC(=O)NCc2cnco2)cc1 [N-Benzyl-N-isopropyl-4-(3-oxazol-5-ylmethyl-ureido)-benzenesulfonamide]	EC50 (Table B-1): < 100 nM
< 100 nM	CC(C)N(Cc1ccccc1)S(=O)(=O)c1ccc(NC(=O)NCc2ccncc2)cc1 [N-Benzyl-N-isopropyl-4-(3-pyridin-4-ylmethyl-ureido)-benzenesulfonamide]	
	CC(C)N(Cc1ccccc1)S(=O)(=O)c1ccc(NC(=O)NCc2nccs2)cc1 [N-Benzyl-N-isopropyl-4-(3-thiazol-2-ylmethyl-ureido)-benzenesulfonamide]	EC50 (Table B-1): > 20000 nM
	CC(C)N(Cc1ccccc1)S(=O)(=O)c1ccc(NC(=O)NCc2cncs2)cc1 [N-Benzyl-N-isopropyl-4-(3-thiazol-5-ylmethyl-ureido)-benzenesulfonamide]	EC50 (Table B-1): < 100 nM
	CC(C)N(Cc1ccccc1)S(=O)(=O)c1ccc(NC(=O)NCc2cn[nH]c2)cc1 [N-Benzyl-N-isopropyl-4-[3-(1H-pyrazol-4-ylmethyl)-ureido]-benzenesulfonamide]	EC50 (Table B-1): < 100 nM
100 to 2000 nM	O=C(NCc1ccncc1)Nc1ccc(S(=O)(=O)N(Cc2ccccc2)c2ccccc2)cc1 [N-Benzyl-N-phenyl-4-(3-pyridin-4-ylmethyl-ureido)-benzenesulfonamide]	
< 100 nM	CCCN(Cc1ccccc1)S(=O)(=O)c1ccc(NC(=O)NCc2ccncc2)cc1 [N-Benzyl-N-propyl-4-(3-pyridin-4-ylmethyl-ureido)-benzenesulfonamide]	
100 to 2000 nM	O=C(NCc1ccncc1)Nc1ccc(S(=O)(=O)NC2CCC2)cc1 [N-Cyclobutyl-4-(3-pyridin-4-ylmethyl-ureido)-benzenesulfonamide]	
100 to 2000 nM	O=C(NCc1ccncc1)Nc1ccc(S(=O)(=O)NCC2CCC2)cc1 [N-Cyclobutylmethyl-4-(3-pyridin-4-ylmethyl-ureido)-benzenesulfonamide]	
	O=C(NCc1cn[nH]c1)Nc1ccc(S(=O)(=O)NCC2CCC2)cc1 [N-Cyclobutylmethyl-4-[3-(1H-pyrazol-4-ylmethyl)-ureido]-benzenesulfonamide]	EC50 (Table B-1): 100 to 2000 nM
100 to 2000 nM	CN(CC1CCC1)S(=O)(=O)c1ccc(NC(=O)NCc2ccncc2)cc1 [N-Cyclobutylmethyl-N-methyl-4-(3-pyridin-4-ylmethyl-ureido)-benzenesulfonamide]	
100 to 2000 nM	O=C(NCc1ccncc1)Nc1ccc(S(=O)(=O)NC2CCCCC2)cc1 [N-Cyclohexyl-4-(3-pyridin-4-ylmethyl-ureido)-benzenesulfonamide]	
100 to 2000 nM	CN(C1CCCCC1)S(=O)(=O)c1ccc(NC(=O)NCc2ccncc2)cc1 [N-Cyclohexyl-N-methyl-4-(3-pyridin-4-ylmethyl-ureido)-benzenesulfonamide]	
< 100 nM	CC(C)CN(C1CCCC1)S(=O)(=O)c1ccc(NC(=O)NCc2ccncc2)cc1 [N-Cyclopentyl-N-isobutyl-4-(3-pyridin-4-ylmethyl-ureido)-benzenesulfonamide]	
100 to 2000 nM	CN(C1CCCC1)S(=O)(=O)c1ccc(NC(=O)NCc2ccncc2)cc1 [N-Cyclopentyl-N-methyl-4-(3-pyridin-4-ylmethyl-ureido)-benzenesulfonamide]	
	CN(C1CCCC1)S(=O)(=O)c1ccc(NC(=O)NCc2cn[nH]c2)cc1 [N-Cyclopentyl-N-methyl-4-[3-(1H-pyrazol-4-ylmethyl)-ureido]-benzenesulfonamide]	EC50 (Table B-1): 100 to 2000 nM
2000 to 5000 nM	O=C(NCc1ccncc1)Nc1ccc(S(=O)(=O)NC2CC2)cc1 [N-Cyclopropyl-4-(3-pyridin-4-ylmethyl-ureido)-benzenesulfonamide]	
